Species on record: Rattus norvegicus
Experiment: Open TG-GATES - Regimen: Daily Repeat
Assay type: toxicity, organism-based, Sprague-Dawley
Design: regimen Daily Repeat, gender Male, age 6 weeks
Conditions: in vivo, po, route gavage; for APTT / Bas / Eos / Fbg / Hb / Ht / Lym / MCH / MCHC / MCV / Mono / Neu / PT / Plat / RBC / Ret / WBC: tissue Blood; for KIDNEY_L / KIDNEY_R / KIDNEY_TOTAL: tissue Kidney; for LIVER: tissue Liver; for A/G / ALP / ALT / AST / BUN / CRE / Ca / Cl / DBIL / GLC / IP / K / LDH / Na / PL / RALB / TBIL / TC / TG / TP / gamma-GTP: tissue Plasma
[1] = 0 mg/kg, 72 h, dose level Control, time 3 day
[2] = 0 mg/kg, […], dose level Control, time 7 day
[3] = 0 mg/kg, […], dose level Control, time 14 day
[4] = 0 mg/kg, […], dose level Control, time 28 day
[5] = 40 mg/kg, 72 h, dose level Low, time 3 day
[6] = 40 mg/kg, […], dose level Low, time 7 day
[7] = 40 mg/kg, […], dose level Low, time 14 day
[8] = 40 mg/kg, […], dose level Low, time 28 day

Cc1cccc(C)c1OCC(C)N (centres undefined) [MEXILETINE]
TERMINAL_BW [1]: 240.8 g
APTT [1]: 20.3 s
Bas [1]: 0%
Eos [1]: 0.8%
Fbg [1]: 302.4 mg/dL
Hb [1]: 12.6 g/dL
Ht [1]: 39.4%
Lym [1]: 81.6%
MCH [1]: 19.9 pg
MCHC [1]: 32.1%
MCV [1]: 61.9 fL
Mono [1]: 2.8%
Neu [1]: 13.8%
PT [1]: 15.8 s
Plat [1]: 115 x10_4/uL
RBC [1]: 636.6 x10_4/ul
Ret [1]: 6.3%
WBC [1]: 120.4 x10_2/uL
KIDNEY_L [1]: 1.1 g
KIDNEY_R [1]: 1.1 g
KIDNEY_TOTAL [1]: 2.2 g
LIVER [1]: 11.2 g
A/G [1]: 1.3
ALP [1]: 1769.2 IU/L
ALT [1]: 44.8 IU/L
AST [1]: 72.2 IU/L
BUN [1]: 15.6 mg/dL
CRE [1]: 0.1 mg/dL
Ca [1]: 10.4 mg/dL
Cl [1]: 106 meq/L
DBIL [1]: 0 mg/dL
GLC [1]: 201.2 mg/dL
IP [1]: 7.6 mg/dL
K [1]: 4.4 meq/L
LDH [1]: 178 IU/L
Na [1]: 142 meq/L
PL [1]: 134 mg/dL
RALB [1]: 3 g/dL
TBIL [1]: 0.008 mg/dL
TC [1]: 73.2 mg/dL
TG [1]: 69.6 mg/dL
TP [1]: 5.4 g/dL
gamma-GTP [1]: 2.2 IU/L
TERMINAL_BW [2]: 274.3 g
TERMINAL_BW [3]: 321.8 g
TERMINAL_BW [4]: 408.3 g
APTT [2]: 23.4 s
Bas [2]: 0%
Eos [2]: 1%
Fbg [2]: 300 mg/dL
Hb [2]: 12.9 g/dL
Ht [2]: 39.7%
Lym [2]: 77.8%
MCH [2]: 20.4 pg
MCHC [2]: 32.5%
MCV [2]: 62.4 fL
Mono [2]: 2.8%
Neu [2]: 17.4%
PT [2]: 15.9 s
Plat [2]: 106.5 x10_4/uL
RBC [2]: 637.2 x10_4/ul
Ret [2]: 6%
WBC [2]: 115.8 x10_2/uL
APTT [3]: 22.2 s
Bas [3]: 0%
Eos [3]: 0.8%
Fbg [3]: 310.6 mg/dL
Hb [3]: 12.8 g/dL
Ht [3]: 39.4%
Lym [3]: 80.6%
MCH [3]: 21 pg
MCHC [3]: 32.4%
MCV [3]: 64.8 fL
Mono [3]: 1.8%
Neu [3]: 16.2%
PT [3]: 16.1 s
Plat [3]: 107.7 x10_4/uL
RBC [3]: 608.6 x10_4/ul
Ret [3]: 8.8%
WBC [3]: 96.5 x10_2/uL
APTT [4]: 25.3 s
Bas [4]: 0%
Eos [4]: 1%
Fbg [4]: 307.6 mg/dL
Hb [4]: 14.8 g/dL
Ht [4]: 43.5%
Lym [4]: 83.2%
MCH [4]: 19.2 pg
MCHC [4]: 34.1%
MCV [4]: 56.3 fL
Mono [4]: 1.6%
Neu [4]: 13.8%
PT [4]: 16.1 s
Plat [4]: 91.8 x10_4/uL
RBC [4]: 774.2 x10_4/ul
Ret [4]: 2.9%
WBC [4]: 104.4 x10_2/uL
KIDNEY_L [2]: 1.2 g
KIDNEY_R [2]: 1.2 g
KIDNEY_TOTAL [2]: 2.3 g
KIDNEY_L [3]: 1.3 g
KIDNEY_R [3]: 1.3 g
KIDNEY_TOTAL [3]: 2.5 g
KIDNEY_L [4]: 1.4 g
KIDNEY_R [4]: 1.5 g
KIDNEY_TOTAL [4]: 2.9 g
LIVER [2]: 13.3 g
LIVER [3]: 14.2 g
LIVER [4]: 16.9 g
A/G [2]: 1.1
ALP [2]: 1475.8 IU/L
ALT [2]: 42.2 IU/L
AST [2]: 65 IU/L
BUN [2]: 20.4 mg/dL
CRE [2]: 0.2 mg/dL
Ca [2]: 10.7 mg/dL
Cl [2]: 105 meq/L
DBIL [2]: 0 mg/dL
GLC [2]: 200.4 mg/dL
IP [2]: 7.5 mg/dL
K [2]: 4.2 meq/L
LDH [2]: 152.8 IU/L
Na [2]: 141.4 meq/L
PL [2]: 152.6 mg/dL
RALB [2]: 3 g/dL
TBIL [2]: 0.002 mg/dL
TC [2]: 80.2 mg/dL
TG [2]: 113.4 mg/dL
TP [2]: 5.6 g/dL
gamma-GTP [2]: 2 IU/L
A/G [3]: 1.1
ALP [3]: 1564.4 IU/L
ALT [3]: 45.6 IU/L
AST [3]: 68.8 IU/L
BUN [3]: 19 mg/dL
CRE [3]: 0.2 mg/dL
Ca [3]: 10.6 mg/dL
Cl [3]: 104.6 meq/L
DBIL [3]: 0 mg/dL
GLC [3]: 211.6 mg/dL
IP [3]: 7.1 mg/dL
K [3]: 4.2 meq/L
LDH [3]: 164.6 IU/L
Na [3]: 140.6 meq/L
PL [3]: 147.8 mg/dL
RALB [3]: 3 g/dL
TBIL [3]: 0.004 mg/dL
TC [3]: 70.2 mg/dL
TG [3]: 143 mg/dL
TP [3]: 5.8 g/dL
gamma-GTP [3]: 2.2 IU/L
A/G [4]: 0.9
ALP [4]: 1046.8 IU/L
ALT [4]: 37.2 IU/L
AST [4]: 61.8 IU/L
BUN [4]: 19.2 mg/dL
CRE [4]: 0.2 mg/dL
Ca [4]: 10.5 mg/dL
Cl [4]: 104.2 meq/L
DBIL [4]: 0 mg/dL
GLC [4]: 194.8 mg/dL
IP [4]: 6.6 mg/dL
K [4]: 3.8 meq/L
LDH [4]: 132.8 IU/L
Na [4]: 143.2 meq/L
PL [4]: 135 mg/dL
RALB [4]: 3 g/dL
TBIL [4]: 0.01 mg/dL
TC [4]: 67.8 mg/dL
TG [4]: 133.6 mg/dL
TP [4]: 6.2 g/dL
gamma-GTP [4]: 2 IU/L
TERMINAL_BW [5]: 247.9 g
APTT [5]: 21.7 s
Bas [5]: 0%
Eos [5]: 0.8%
Fbg [5]: 327.2 mg/dL
Hb [5]: 13 g/dL
Ht [5]: 39.6%
Lym [5]: 79.8%
MCH [5]: 20.3 pg
MCHC [5]: 32.7%
MCV [5]: 62.1 fL
Mono [5]: 3.2%
Neu [5]: 15.6%
PT [5]: 15.2 s
Plat [5]: 118.3 x10_4/uL
RBC [5]: 638.4 x10_4/ul
Ret [5]: 6.1%
WBC [5]: 92 x10_2/uL
KIDNEY_L [5]: 1.1 g
KIDNEY_R [5]: 1.1 g
KIDNEY_TOTAL [5]: 2.1 g
LIVER [5]: 12.1 g
A/G [5]: 1.3
ALP [5]: 1808.2 IU/L
ALT [5]: 47.4 IU/L
AST [5]: 72.6 IU/L
BUN [5]: 16.2 mg/dL
CRE [5]: 0.1 mg/dL
Ca [5]: 10.5 mg/dL
Cl [5]: 105.2 meq/L
DBIL [5]: 0 mg/dL
GLC [5]: 192.4 mg/dL
IP [5]: 7.7 mg/dL
K [5]: 4.4 meq/L
LDH [5]: 147.4 IU/L
Na [5]: 141 meq/L
PL [5]: 151 mg/dL
RALB [5]: 3.2 g/dL
TBIL [5]: 0.006 mg/dL
TC [5]: 77.6 mg/dL
TG [5]: 133.8 mg/dL
TP [5]: 5.6 g/dL
gamma-GTP [5]: 1.6 IU/L
TERMINAL_BW [6]: 275.8 g
TERMINAL_BW [7]: 338.1 g
TERMINAL_BW [8]: 397.8 g
APTT [6]: 22.5 s
Bas [6]: 0%
Eos [6]: 1%
Fbg [6]: 317.4 mg/dL
Hb [6]: 13 g/dL
Ht [6]: 39.9%
Lym [6]: 81%
MCH [6]: 20.4 pg
MCHC [6]: 32.5%
MCV [6]: 62.8 fL
Mono [6]: 2.4%
Neu [6]: 15%
PT [6]: 16 s
Plat [6]: 107.4 x10_4/uL
RBC [6]: 634.4 x10_4/ul
Ret [6]: 6.2%
WBC [6]: 105.8 x10_2/uL
APTT [7]: 20.9 s
Bas [7]: 0%
Eos [7]: 0.4%
Fbg [7]: 302.8 mg/dL
Hb [7]: 13.1 g/dL
Ht [7]: 40.8%
Lym [7]: 80.4%
MCH [7]: 20.6 pg
MCHC [7]: 32.1%
MCV [7]: 64.2 fL
Mono [7]: 2.2%
Neu [7]: 16%
PT [7]: 15.9 s
Plat [7]: 119 x10_4/uL
RBC [7]: 634.2 x10_4/ul
Ret [7]: 7.8%
WBC [7]: 92.2 x10_2/uL
APTT [8]: 22.8 s
Bas [8]: 0%
Eos [8]: 1%
Fbg [8]: 323.4 mg/dL
Hb [8]: 14.9 g/dL
Ht [8]: 43.2%
Lym [8]: 79.8%
MCH [8]: 19.4 pg
MCHC [8]: 34.5%
MCV [8]: 56.3 fL
Mono [8]: 2.4%
Neu [8]: 15.6%
PT [8]: 15.9 s
Plat [8]: 101.8 x10_4/uL
RBC [8]: 766.6 x10_4/ul
Ret [8]: 2.8%
WBC [8]: 104.7 x10_2/uL
KIDNEY_L [6]: 1.1 g
KIDNEY_R [6]: 1.1 g
KIDNEY_TOTAL [6]: 2.2 g
KIDNEY_L [7]: 1.3 g
KIDNEY_R [7]: 1.3 g
KIDNEY_TOTAL [7]: 2.6 g
KIDNEY_L [8]: 1.4 g
KIDNEY_R [8]: 1.4 g
KIDNEY_TOTAL [8]: 2.9 g
LIVER [6]: 12.7 g
LIVER [7]: 15.2 g
LIVER [8]: 17.1 g
A/G [6]: 1.2
ALP [6]: 1628.6 IU/L
ALT [6]: 47.8 IU/L
AST [6]: 72.4 IU/L
BUN [6]: 19.6 mg/dL
CRE [6]: 0.2 mg/dL
Ca [6]: 10.6 mg/dL
Cl [6]: 105.6 meq/L
DBIL [6]: 0 mg/dL
GLC [6]: 190 mg/dL
IP [6]: 7.2 mg/dL
K [6]: 4 meq/L
LDH [6]: 162.8 IU/L
Na [6]: 143.2 meq/L
PL [6]: 145.2 mg/dL
RALB [6]: 3 g/dL
TBIL [6]: 0.002 mg/dL
TC [6]: 82 mg/dL
TG [6]: 108.8 mg/dL
TP [6]: 5.6 g/dL
gamma-GTP [6]: 1.8 IU/L
A/G [7]: 1.1
ALP [7]: 1520 IU/L
ALT [7]: 43.4 IU/L
AST [7]: 69.6 IU/L
BUN [7]: 18.6 mg/dL
CRE [7]: 0.2 mg/dL
Ca [7]: 10.5 mg/dL
Cl [7]: 106.8 meq/L
DBIL [7]: 0 mg/dL
GLC [7]: 196.8 mg/dL
IP [7]: 6.8 mg/dL
K [7]: 4.2 meq/L
LDH [7]: 154.2 IU/L
Na [7]: 141.4 meq/L
PL [7]: 152.8 mg/dL
RALB [7]: 3 g/dL
TBIL [7]: 0.002 mg/dL
TC [7]: 80.4 mg/dL
TG [7]: 136.8 mg/dL
TP [7]: 5.9 g/dL
gamma-GTP [7]: 2.4 IU/L
A/G [8]: 1
ALP [8]: 1106 IU/L
ALT [8]: 37.8 IU/L
AST [8]: 62.4 IU/L
BUN [8]: 17.6 mg/dL
CRE [8]: 0.2 mg/dL
Ca [8]: 10.5 mg/dL
Cl [8]: 106 meq/L
DBIL [8]: 0 mg/dL
GLC [8]: 197.2 mg/dL
IP [8]: 6.5 mg/dL
K [8]: 3.8 meq/L
LDH [8]: 154.6 IU/L
Na [8]: 142.8 meq/L
PL [8]: 146.4 mg/dL
RALB [8]: 3.1 g/dL
TBIL [8]: 0.014 mg/dL
TC [8]: 67.8 mg/dL
TG [8]: 174.2 mg/dL
TP [8]: 6.1 g/dL
gamma-GTP [8]: 2.4 IU/L

From ChEMBL document CHEMBL3885861, “Open TG-GATES”
